The values that follow come from US20250346592A1 (Celgene Corporation, priority 2022, published 2025).

Assay [1] addresses T1, hPAD4 enzyme (Homo sapiens (Human), UniProt Q9UM07). As to the kind of experiment: RFMS1 assay (RapidFire mass spectrometry, BAEE substrate). To be noted: 5 nM hPAD4, 250 μM BAEE, 30 min preincubation at 37° C., 90 min reaction; read-out: RFMS 1 IC50. Format: biochemical. An outline of the steps:
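hPAD4 (5 nM) preincubated 30 min at 37° C. with compound, then 250 μM BAEE for 90 min at 37° C. in pH 7.5 HEPES buffer with 50 μM calcium, 1 mM DTT, 5 μM TPEN. TCA quench, phenyl glyoxal derivatisation; citrulline product measured by RapidFire MS, normalised to internal standard; IC50 values.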

Assay [2] concerns the target T1, hPAD4 enzyme. As to the kind of experiment: RFMS2 assay (RapidFire mass spectrometry, TSTGGRQGSHH peptide substrate). Format: biochemical. To be noted: 35 nM recombinant human PAD4, 500 μM TSTGGRQGSHH peptide, 30 minutes at room temperature; read-out: RFMS 2 IC50. An outline of the steps: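 IC50 derived from RapidFire LC-MS/MS (positive ESI MRM) of substrate versus product after a 30 min room-temperature reaction stopped with 10% formic acid. Reaction contained 35 nM human PAD4, 500 μM peptide, 2 mM CaCl2, 5 mM DTT at pH 7.4, and compounds diluted 3-fold from 20 μM.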

T1 sequence (Q9UM07 whole entry): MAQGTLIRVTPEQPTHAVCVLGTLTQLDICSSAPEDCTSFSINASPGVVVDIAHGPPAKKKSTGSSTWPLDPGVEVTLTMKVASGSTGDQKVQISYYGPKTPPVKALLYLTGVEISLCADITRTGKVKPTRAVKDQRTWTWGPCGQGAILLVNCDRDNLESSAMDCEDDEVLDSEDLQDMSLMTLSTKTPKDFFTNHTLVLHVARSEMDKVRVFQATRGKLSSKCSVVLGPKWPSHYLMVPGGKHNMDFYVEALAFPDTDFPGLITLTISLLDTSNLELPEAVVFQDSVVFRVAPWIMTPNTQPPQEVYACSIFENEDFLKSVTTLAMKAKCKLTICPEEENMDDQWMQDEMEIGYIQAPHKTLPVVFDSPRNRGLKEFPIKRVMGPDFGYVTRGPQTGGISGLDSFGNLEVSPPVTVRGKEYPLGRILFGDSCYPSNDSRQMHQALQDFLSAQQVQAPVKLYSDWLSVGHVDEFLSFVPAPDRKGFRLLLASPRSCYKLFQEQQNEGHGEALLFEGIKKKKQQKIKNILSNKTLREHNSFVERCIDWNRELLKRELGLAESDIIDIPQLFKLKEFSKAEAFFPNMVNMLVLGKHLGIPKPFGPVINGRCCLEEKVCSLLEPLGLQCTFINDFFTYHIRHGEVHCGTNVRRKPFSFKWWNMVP

What is called IC50 is the midpoint of a concentration-inhibition curve. For the molecule `COc1cccc2cc(-c3nc4cc5c(c(F)c4n3C)CCN(C[C@H](N)CF)C5=O)n(CC3CC3)c12` [Example 238, (S)-6-(2-amino-3-fluoropropyl)-2-(1-(cyclopropylmethyl)-7-methoxy-1H-indol-2-yl)-9-fluoro-1-methyl-1,6,7,8-tetrahydro-5H-imidazo[4,5-g]isoquinolin-5-one], the IC50 in assay [1] was in the range of 11 to 100 nM; in assay [2], 101 to 500 nM.
